Reference: US8507478B2, “Oxazolidinyl antibiotics” (Actelion Pharmaceuticals Ltd., priority 2008, dated 2013)
Values after ≈ are worked out from the molar mass of the structure shown.

These molecules were tested on M. catarrhalis A894 (assay: MIC determination by microdilution in cation-adjusted Mueller-Hinton Broth). Conditions: Moraxella catarrhalis, microdilution method, CLSI M7-A7.
Assay type: cell-based
Description: Minimal inhibitory concentrations (MICs; mg/l) were determined in cation-adjusted Mueller-Hinton Broth by a microdilution method following the description given in “Methods for Dilution Antimicrobial Susceptibility Tests for Bacteria that Grow Aerobically”, Approved standard, 7th ed., Clinical and Laboratory Standards Institute (CLSI) Document M7-A7, Wayne, Pa., USA, 2006. All Example compounds were tested against several Gram positive and Gram negative bacteria such as S. aureus, E. faecalis, S. pneumoniae, M catarrhalis, A. baumanii, E.coli or P. aeruginosa.

Structure (SMILES) | MIC
COc1ccc2ccc(=O)n(CC3CN(C[C@@H]4CN(c5ccc6c(c5)OCCO6)C(=O)O4)C3)c2c1 [Example 3, 1-{1-[(R)-3-(2,3-dihydro-benzo[1,4]dioxin-6-yl)-2-oxo-oxazolidin-5-ylmethyl]-azetidin-3-ylmethyl}-7-methoxy-1H-quinolin-2-one] | 0.063 µg/mL (≈ 0.132 µM)
COc1ccc2c(c1)N(CC1CN(C[C@@H]3CN(c4ccc5c(c4)NC(=O)CO5)C(=O)O3)C1)C(=O)CC2 [Example 12, 6-{(R)-5-[3-(7-methoxy-2-oxo-3,4-dihydro-2H-quinolin-1-ylmethyl)azetidin-1-ylmethyl]-2-oxo-oxazolidin-3-yl}-4H-benzo[1,4]oxazin-3-one] | 0.5 µg/mL (≈ 1.02 µM)
COc1ccc2ncc(=O)n(CC3CN(C[C@@H]4CN(c5ccc6c(c5)OCCO6)C(=O)O4)C3)c2c1 [Example 14, 1-{1-[(R)-3-(2,3-dihydro-benzo[1,4]dioxin-6-yl)-2-oxo-oxazolidin-5-ylmethyl]-azetidin-3-ylmethyl}-7-methoxy-1H-quinoxalin-2-one] | 0.25 µg/mL (≈ 0.522 µM)
COc1ccc2ccc(=O)n(CC3CCN(C[C@@H]4CN(c5ccc(C)c(F)c5)C(=O)O4)CC3)c2c1 [Example 9, 1-{1-[(R)-3-(3-fluoro-4-methyl-phenyl)-2-oxo-oxazolidin-5-ylmethyl]-piperidin-4-ylmethyl}-7-methoxy-1H-quinolin-2-one] | 1 µg/mL (≈ 2.09 µM)
COc1ccc2ncc(=O)n(C3CCN(C[C@@H]4CN(c5ccc6c(c5)OCCO6)C(=O)O4)CC3)c2n1 [Example 22, 4-{1-[(R)-3-(2,3-dihydro-benzo[1,4]dioxin-6-yl)-2-oxo-oxazolidin-5-ylmethyl]-piperidin-4-yl}-6-methoxy-4H-pyrido[2,3-b]pyrazin-3-one] | ≤ 0.031 µg/mL
COc1ccc2ccc(=O)n(CC3(O)CCN(CC[C@H]4CN(c5ccc6c(c5)NC(=O)CS6)C(=O)O4)C3)c2c1 (mixture of isomers) [Example 20, 6-((S)-5-{2-[(RS)-3-hydroxy-3-(7-methoxy-2-oxo-2H-quinolin-1-ylmethyl)-pyrrolidin-1-yl]-ethyl}-2-oxo-oxazolidin-3-yl)-4H-benzo[1,4]thiazin-3-one] | ≤ 0.031 µg/mL
COc1ccc2ncc(=O)n(C3CCN(CC[C@H]4CN(c5ccc6c(c5)NC(=O)CS6)C(=O)O4)CC3)c2n1 [Example 23, 6-methoxy-4-(1-{2-[(S)-2-oxo-3-(3-oxo-3,4-dihydro-2H-benzo[1,4]thiazin-6-yl)-oxazolidin-5-yl]-ethyl}-piperidin-4-yl)-4H-pyrido[2,3-b]pyrazin-3-one] | ≤ 0.031 µg/mL
COc1ccc2ccc(=O)n(C[C@@H]3CCN(C[C@@H]4CN(c5ccc6c(c5)NC(=O)CS6)C(=O)O4)C3)c2c1 [Example 17, 6-{(R)-5-[(R)-3-(7-methoxy-2-oxo-2H-quinolin-1-ylmethyl)-pyrrolidin-1-ylmethyl]-2-oxo-oxazolidin-3-yl}-4H-benzo[1,4]thiazin-3-one] | ≤ 0.031 µg/mL
COc1ccc2ncc(=O)n(CC3CN(C[C@@H]4CN(c5ccc6c(c5)NC(=O)CS6)C(=O)O4)C3)c2c1 [Example 4, 6-{(R)-5-[3-(7-methoxy-2-oxo-2H-quinoxalin-1-ylmethyl)-azetidin-1-ylmethyl]-2-oxo-oxazolidin-3-yl}-4H-benzo[1,4]thiazin-3-one] | ≤ 0.031 µg/mL
COc1ccc2c(c1)N(CC1CN(C[C@@H]3CN(c4ccc5c(c4)NC(=O)CS5)C(=O)O3)C1)C(=O)CC2 [Example 10, 6-{(R)-5-[3-(7-methoxy-2-oxo-3,4-dihydro-2H-quinolin-1-ylmethyl)azetidin-1-ylmethyl]-2-oxo-oxazolidin-3-yl}-4H-benzo[1,4]thiazin-3-one] | ≤ 0.031 µg/mL
COc1ccc2ncc(=O)n(CC3CN(CC[C@@H]4CN(c5ccc6c(c5)NC(=O)CS6)C(=O)O4)C3)c2c1 [Example 6, 6-((R)-5-{2-[3-(7-methoxy-2-oxo-2H-quinoxalin-1-ylmethyl)-azetidin-1-yl]-ethyl}-2-oxo-oxazolidin-3-yl)-4H-benzo[1,4]thiazin-3-one] | ≤ 0.031 µg/mL
COc1ccc2ccc(=O)n(CC3(O)CCN(C[C@@H]4CN(c5ccc6c(c5)NC(=O)CS6)C(=O)O4)C3)c2c1 (mixture of isomers) [Example 18, 6-{(R)-5-[(RS)-3-hydroxy-3-(7-methoxy-2-oxo-2H-quinolin-1-ylmethyl)pyrrolidin-1-ylmethyl]-2-oxo-oxazolidin-3-yl}-4H-benzo[1,4]thiazin-3-one] | ≤ 0.031 µg/mL
COc1ccc2ccc(=O)n(CC3CN(C[C@@H]4CN(c5ccc6c(c5)NC(=O)CS6)C(=O)O4)C3)c2c1 [Example 2, 6-{(R)-5-[3-(7-methoxy-2-oxo-2H-quinolin-1-ylmethyl)-azetidin-1-ylmethyl]-2-oxo-oxazolidin-3-yl}-4H-benzo[1,4]thiazin-3-one] | ≤ 0.031 µg/mL
COc1ccc2ccc(=O)n(CC3CCN(C[C@@H]4CN(c5ccc6c(c5)OCCO6)C(=O)O4)CC3)c2c1 [Example 8, 1-{1-[(R)-3-(2,3-dihydro-benzo[1,4]dioxin-6-yl)-2-oxo-oxazolidin-5-ylmethyl]-piperidin-4-ylmethyl}-7-methoxy-1H-quinolin-2-one] | 1 µg/mL (≈ 1.98 µM)
COc1ccc2ncc(=O)n(CC3CN(C[C@@H]4CN(c5ccc6c(c5)NC(=O)CO6)C(=O)O4)C3)c2c1 [Example 13, 6-{(R)-5-[3-(7-methoxy-2-oxo-2H-quinoxalin-1-ylmethyl)-azetidin-1-ylmethyl]-2-oxo-oxazolidin-3-yl}-4H-benzo[1,4]oxazin-3-one] | ≤ 0.031 µg/mL

More lines, now with the values ahead:

MIC | Structure (SMILES)
≤ 0.031 µg/mL | COc1ccc2ccc(=O)n(CC3CCN(C[C@@H]4CN(c5ccc6c(c5)NC(=O)CS6)C(=O)O4)CC3)c2c1 [Example 7, 6-{(R)-5-[4-(7-methoxy-2-oxo-2H-quinolin-1-ylmethyl)-piperidin-1-ylmethyl]-2-oxo-oxazolidin-3-yl}-4H-benzo[1,4]thiazin-3-one]
≤ 0.031 µg/mL | COc1ccc2ccc(=O)n(CC3(O)CCN(CC[C@@H]4CN(c5ccc6c(c5)NC(=O)CS6)C(=O)O4)C3)c2c1 (mixture of isomers) [Example 21, 6-((R)-5-{2-[(RS)-3-hydroxy-3-(7-methoxy-2-oxo-2H-quinolin-1-ylmethyl)-pyrrolidin-1-yl]-ethyl}-2-oxo-oxazolidin-3-yl)-4H-benzo[1,4]thiazin-3-one]
≤ 0.031 µg/mL | COc1ccc2c(c1)N(CC1CN(C[C@H]3CN(c4ccc5c(c4)NC(=O)CS5)C(=O)O3)C1)C(=O)CC2 [Example 11, 6-{(S)-5-[3-(7-methoxy-2-oxo-3,4-dihydro-2H-quinolin-1-ylmethyl)azetidin-1-ylmethyl]-2-oxo-oxazolidin-3-yl}-4H-benzo[1,4]thiazin-3-one]
≤ 0.031 µg/mL | COc1ccc2ncc(=O)n(C3CCN(C[C@@H]4CN(c5ccc6c(c5)NC(=O)CO6)C(=O)O4)CC3)c2n1 [Example 16, 6-methoxy-4-{1-[(R)-2-oxo-3-(3-oxo-3,4-dihydro-2H-benzo[1,4]oxazin-6-yl)-oxazolidin-5-ylmethyl]-piperidin-4-yl}-4H-pyrido[2,3-b]pyrazin-3-one]
≤ 0.031 µg/mL | COc1ccc2ccc(=O)n(CC3(O)CCN(C[C@H]4CN(c5ccc6c(c5)NC(=O)CS6)C(=O)O4)C3)c2c1 (mixture of isomers) [Example 19, 6-{(S)-5-[(RS)-3-hydroxy-3-(7-methoxy-2-oxo-2H-quinolin-1-ylmethyl)pyrrolidin-1-ylmethyl]-2-oxo-oxazolidin-3-yl}-4H-benzo[1,4]thiazin-3-one]
≤ 0.031 µg/mL | COc1ccc2ccc(=O)n(CC3CN(CC[C@@H]4CN(c5ccc6c(c5)NC(=O)CS6)C(=O)O4)C3)c2c1 [Example 5, 6-((R)-5-{2-[3-(7-methoxy-2-oxo-2H-quinolin-1-ylmethyl)-azetidin-1-yl]-ethyl}-2-oxo-oxazolidin-3-yl)-4H-benzo[1,4]thiazin-3-one]
≤ 0.031 µg/mL | COc1ccc2ccc(=O)n(CC3(O)CN(C[C@@H]4CN(c5ccc6c(c5)NC(=O)CS6)C(=O)O4)C3)c2c1 [Example 1, 6-{(R)-5-[3-hydroxy-3-(7-methoxy-2-oxo-2H-quinolin-1-ylmethyl)azetidin-1-ylmethyl]-2-oxo-oxazolidin-3-yl}-4H-benzo[1,4]thiazin-3-one]
≤ 0.031 µg/mL | COc1ccc2ncc(=O)n(C3CCN(C[C@@H]4CN(c5ccc6c(c5)NC(=O)CS6)C(=O)O4)CC3)c2n1 [Example 15, 6-methoxy-4-[1-{(R)-2-oxo-3-(3-oxo-3,4-dihydro-2H-benzo[1,4]thiazin-6-yl)-oxazolidin-5-ylmethyl]-piperidin-4-yl}-4H-pyrido[2,3-b]pyrazin-3-one]
≤ 0.031 µg/mL | COc1ccc2ncc(=O)n(C3CCN(CC[C@@H]4CN(c5ccc6c(c5)NC(=O)CS6)C(=O)O4)CC3)c2n1 [Example 25, 6-methoxy-4-(1-{2-[(R)-2-oxo-3-(3-oxo-3,4-dihydro-2H-benzo[1,4]thiazin-6-yl)-oxazolidin-5-yl]-ethyl}-piperidin-4-yl)-4H-pyrido[2,3-b]pyrazin-3-one]
≤ 0.031 µg/mL | COc1ccc2ncc(=O)n(C3CCN(C[C@@H]4CN(c5ccc(C)c(F)c5)C(=O)O4)CC3)c2n1 [Example 24, 4-{1-[(R)-3-(3-fluoro-4-methyl-phenyl)-2-oxo-oxazolidin-5-ylmethyl]-piperidin-4-yl}-6-methoxy-4H-pyrido[2,3-b]pyrazin-3-one]
